Active and inactive are the calls of the source. The calls are words filed in the database; no cut-off is given here.

The target in experiment [1] is T1, Growth factor receptor-bound protein 2 (Homo sapiens, UniProt P62993). Kind of experiment: Displacement of biotin-Ahx-PSpYVNVQN peptide from GST fused Grb2 SH2 domain by ELISA. In general terms: In an ELISA, binding on a coated surface is turned into a signal by an enzyme label.
For experiment [2], the target named is T1, Growth factor receptor-bound protein 2. In words: Inhibition of Grb2 by ELISA.
Target sequence in this assay (P62993 whole entry, the tested form may be a part): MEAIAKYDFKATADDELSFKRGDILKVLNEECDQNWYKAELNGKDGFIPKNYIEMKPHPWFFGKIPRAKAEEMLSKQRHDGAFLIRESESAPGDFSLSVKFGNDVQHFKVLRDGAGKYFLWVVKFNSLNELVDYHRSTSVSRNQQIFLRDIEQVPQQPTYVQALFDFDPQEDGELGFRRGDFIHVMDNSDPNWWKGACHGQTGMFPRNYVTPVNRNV

Broadly, the IC50 is the point on the concentration scale where inhibition reaches its midpoint. A lower IC50 goes with greater potency. Consider `NC(=O)CNc1nc(Nc2ccc(OP(=O)(O)O)cc2)nc(-c2ccccc2Oc2ccc(OP(=O)(O)O)cc2)n1`, for which the IC50 in experiment [1] was 265 µM.
As to `Cc1ccc(OC(C)(C)C(=O)N[C@@H](Cc2ccc(OP(=O)(O)O)cc2)C(=O)N[C@@](C)(Cc2ccc(OP(=O)(O)O)cc2)C(=O)N[C@@H](CC(N)=O)C(N)=O)c(/N=N/c2ccccc2)c1`, in experiment [2], the half-inhibitory concentration (IC50) was found to be 0.011 µM.
With `NC(=O)CNc1nc(Nc2ccc(OP(=O)(O)O)cc2)nc(-c2cccc(Oc3ccc(OP(=O)(O)O)cc3)c2)n1`, in experiment [1], the result was inactive.
For the molecule `Cc1cc(-c2cccc(Oc3ccc(OP(=O)(O)O)cc3)c2)nc(Nc2ccc(-c3nn[nH]n3)cc2)n1`, the result in experiment [1] was inactive.
